According to patent US10981932B2, “Macrocyclic indole derivatives” (Bayer Aktiengesellschaft, priority 2016, dated 2021):
Structures can show the parent of a compound that is named as a salt. Where two headings read alike, the source gives them in different places.

Legend:
[1] = tested on: SUDHL5; assay: Induction of cytotoxicity (CellTiter-Glo, 5 h), SUDHL5
[2] = tested on: SUDHL10; assay: Induction of caspase-3/7 activity (Caspase-Glo 3/7), SUDHL10; type: cell-based; settings: caspase-3/7 induction, SUDHL10 cells, 3 h treatment, median
In short: (§1)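 A 3 h, 37 °C compound incubation precedes the Caspase-Glo 3/7 read. After subtracting medium-only signal, EC50s are fitted against the reference compound's maximal caspase induction.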

[3] = tested on: SUDHL10; assay: Induction of cytotoxicity (CellTiter-Glo, 5 h), SUDHL10
[4] = tested on: SUDHL5; assay: Anti-proliferative effect (CellTiter-Glo, 72 h), SUDHL5; type: cell-based; settings: SUDHL5 cells, antiproliferation, median, read-out: Antiproli SUDHL5 [M] (median)
In short: (§2)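 Endpoint: CellTiter-Glo luminescence, 10 min after reagent addition. Treatment ran 72 h at 37 °C, humidified. Growth was referenced to a separately plated day 0 plate.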

[5] = tested on: SUDHL10; assay: Anti-proliferative effect (CellTiter-Glo, 72 h), SUDHL10; type: cell-based; settings: SUDHL10 cells, antiproliferation, median, read-out: Antiproli SUDHL10 [M] (median)
In short: as §2

[6] = tested on: A2780; assay: Anti-proliferative effect (CellTiter-Glo, 72 h), A2780; type: cell-based; settings: A2780 cells, median, read-out: IC50 antiproliferation assay A2780 [M] (median)
In short: as §2

[7] = tested on: SUDHL5; assay: Induction of caspase-3/7 activity (Caspase-Glo 3/7), SUDHL5; type: cell-based; settings: caspase-3/7 induction, SUDHL5 cells, 3 h treatment, median
In short: as §1

[8] = target: MCL-1 (Homo sapiens, UniProt Q07820); assay: Protein-protein interaction assay MCL-1/Noxa BH3 peptide (MCL-1 assay), TR-FRET; type: binding; settings: MBP-MCL-1 / Noxa BH3-derived peptide, median
In short: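 Steady-state competition, MCL-1/Noxa BH3, TR-FRET readout; 1 nM MBP-MCL-1, 11-point dose series 0.1 nM–20 μM; overnight 4 °C equilibration; 4-parameter IC50.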

[9] = Homo sapiens, SU-DHL-5, 5 h, read-out: Cytotox SUDHL5 [M] (median), SUDHL5 cells, cytotoxicity induction, CellTiter-Glo, 5 h, median
[10] = Homo sapiens, SU-DHL10, 5 h, read-out: Cytotox SUDHL10 [M] (median), SUDHL10 cells, cytotoxicity induction, CellTiter-Glo, 5 h, median
[11] = Homo sapiens, SU-DHL-5, 72 h, 72 h
[12] = Homo sapiens, SU-DHL10, 72 h, 72 h
[13] = read-out: Cytotox SUDHL5 [M] (median), SUDHL5 cells, cytotoxicity induction, CellTiter-Glo, 5 h incubation, median
[14] = read-out: Cytotox SUDHL10 [M] (median), SUDHL10 cells, cytotoxicity induction, CellTiter-Glo, 5 h incubation, median

MCL-1, sequence (Q07820 whole entry): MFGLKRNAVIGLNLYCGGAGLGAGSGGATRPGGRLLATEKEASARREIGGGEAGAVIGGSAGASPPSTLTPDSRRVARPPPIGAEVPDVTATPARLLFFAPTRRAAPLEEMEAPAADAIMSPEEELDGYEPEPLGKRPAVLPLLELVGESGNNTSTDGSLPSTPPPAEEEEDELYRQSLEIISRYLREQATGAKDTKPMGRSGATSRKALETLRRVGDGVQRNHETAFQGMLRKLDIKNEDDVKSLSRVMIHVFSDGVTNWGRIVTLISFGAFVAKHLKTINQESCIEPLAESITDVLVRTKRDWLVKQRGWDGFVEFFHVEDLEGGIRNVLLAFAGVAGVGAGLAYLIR

Compound | EC50 ([2]; Homo sapiens, SU-DHL10, 3 h) [µM] | IC50 [4, 11] [M] | IC50 [5, 12] [M] | IC50 ([6]; Homo sapiens, A2780, 72 h) [M] | EC50 ([7]; Homo sapiens, SU-DHL-5, 3 h) [µM] | IC50 [8] [µM] | EC50 [2] [µM] | IC50 [6] [M] | EC50 [7] [µM] | IC50 ([4]; 72 h incubation) [M] | IC50 ([5]; 72 h incubation) [M] | IC50 [1, 9] [M] | IC50 [3, 10] [M] | IC50 ([1]; read-out: Cytotox SUDHL5 [M] (median), SUDHL5 cells, cytotoxicity induction, CellTiter-Glo, 5 h, median) | IC50 ([3]; read-out: Cytotox SUDHL10 [M] (median), SUDHL10 cells, cytotoxicity induction, CellTiter-Glo, 5 h, median) | IC50 ([4]; 72 h) [M] | IC50 ([5]; 72 h) [M] | IC50 [1, 13] [M] | IC50 [3, 14] [M]
Cn1nc(CN2CCCCC2)c2c1COCCCCn1c(C(=O)O)c(CCCOc3cccc4ccccc34)c3cccc-2c31 (single isomer, unassigned; enantiomer 1) [Example 333, 1-methyl-7-[3-(naphthalen-1-yloxy)propyl]-3-(piperidin-1-ylmethyl)-1,10,11,12,13,15-hexahydropyrazolo[4′,3′:9,10][1,6]oxazacycloundecino[8,7,6-hi]indole-8-carboxylic Acid (Enantiomer 1)] | > 33 | 8.44e-06 | 8.22e-06 | 1.67e-05 | 17.3 | 1.04 | – | – | – | – | – | 2.89e-05 | > 3.3e-05 | – | – | – | – | – | –
Cn1nc(CN2CCCC2)c2c1COCCCCn1c(C(=O)O)c(CCCOc3cccc4ccccc34)c3cccc-2c31 (single isomer, unassigned; enantiomer 1) [Example 336, 1-methyl-7-[3-(naphthalen-1-yloxy)propyl]-3-(pyrrolidin-1-ylmethyl)-1,10,11,12,13,15-hexahydropyrazolo[4′,3′:9,10][1,6]oxazacycloundecino[8,7,6-hi]indole-8-carboxylic Acid (Enantiomer 1)] | > 33 | > 3.3e-05 | > 3.3e-05 | > 3.3e-05 | > 33 | 0.132 | – | – | – | – | – | > 3.3e-05 | > 3.3e-05 | – | – | – | – | – | –
Cn1nc(COC(=O)NCC(F)(F)F)c2c1COCCCCn1c(C(=O)O)c(CCCOc3cccc4ccccc34)c3cccc-2c31 (single isomer, unassigned; enantiomer 1) [Example 343, 1-methyl-7-[3-(naphthalen-1-yloxy)propyl]-3-({[(2,2,2-trifluoroethyl)carbamoyl]oxy}methyl)-1,10,11,12,13,15-hexahydropyrazolo[4′,3′:9,10][1,6]oxazacycloundecino[8,7,6-hi]indole-8-carboxylic Acid (Enantiomer 1)] | > 33 | 1.92e-06 | 1.11e-06 | 1.9e-05 | 29.7 | 0.325 | – | – | – | – | – | > 3.3e-05 | > 3.3e-05 | – | – | – | – | – | –
Cn1nc(CN2CC3(COC3)C2)c2c1COCCCCn1c(C(=O)O)c(CCCOc3cccc4ccccc34)c3cccc-2c31 (single isomer, unassigned; enantiomer 1) [Example 344, 1-methyl-7-[3-(naphthalen-1-yloxy)propyl]-3-(2-oxa-6-azaspiro[3.3]hept-6-ylmethyl)-1,10,11,12,13,15-hexahydropyrazolo[4′,3′:9,10][1,6]oxazacycloundecino[8,7,6-hi]indole-8-carboxylic acid-N-ethylethanamine Salt (Enantiomer 1)] | – | – | – | – | – | 0.433 | > 33 | > 3.3e-05 | > 33 | – | – | – | – | > 3.3e-05 | > 3.3e-05 | 2.08e-05 | 1.44e-05 | – | –
Cc1c2c(nn1C)CN(C)CCCCn1c(C(=O)O)c(CCCOc3cccc4ccccc34)c3cccc-2c31 (single isomer, unassigned; enantiomer 2) [Example 069, 2,3,14-trimethyl-7-[3-(naphthalen-1-yloxy)propyl]-10,11,12,13,14,15-hexahydro-2H-pyrazolo[3′,4′:8,9][1,6]diazacycloundecino[10,11,1-hi]indole-8-carboxylic Acid (Enantiomer 2)] | – | – | – | – | – | 0.162 | > 33 | > 3.3e-05 | > 33 | > 3.3e-05 | 2.11e-05 | – | – | – | – | – | – | > 3.3e-05 | > 3.3e-05

The next lines start with results.

EC50 ([2]; Homo sapiens, SU-DHL10, 3 h) [µM] | IC50 [4, 11] [M] | IC50 [5, 12] [M] | IC50 ([6]; Homo sapiens, A2780, 72 h) [M] | EC50 ([7]; Homo sapiens, SU-DHL-5, 3 h) [µM] | IC50 [8] [µM] | EC50 [2] [µM] | IC50 [6] [M] | EC50 [7] [µM] | IC50 ([4]; 72 h incubation) [M] | IC50 ([5]; 72 h incubation) [M] | Compound | IC50 [1, 9] [M] | IC50 [3, 10] [M] | IC50 ([1]; read-out: Cytotox SUDHL5 [M] (median), SUDHL5 cells, cytotoxicity induction, CellTiter-Glo, 5 h, median) | IC50 ([3]; read-out: Cytotox SUDHL10 [M] (median), SUDHL10 cells, cytotoxicity induction, CellTiter-Glo, 5 h, median) | IC50 ([4]; 72 h) [M] | IC50 ([5]; 72 h) [M] | IC50 [1, 13] [M] | IC50 [3, 14] [M]
> 33 | 4.71e-06 | > 3.3e-05 | > 3.3e-05 | 21.1 | 0.0219 | – | – | – | – | – | CC(=O)NCc1nn(C)c2c1-c1cccc3c(CCCOc4cccc5ccccc45)c(C(=O)O)n(c13)CCCCOC2 (single isomer, unassigned; enantiomer 1) [Example 340, 3-[(acetylamino)methyl]-1-methyl-7-[3-(naphthalen-1-yloxy)propyl]-1,10,11,12,13,15-hexahydropyrazolo[4′3′:9,10][1,6]oxazacycloundecino[8,7,6-hi]indole-carboxylic Acid (Enantiomer 1)] | 1.56e-05 | > 3.3e-05 | – | – | – | – | – | –
– | – | – | – | – | 0.126 | > 33 | 2.46e-05 | > 33 | 2.59e-05 | 1.55e-05 | Cc1nn(C)c2c1-c1cccc3c(CCCOc4cccc5c4CCCC5)c(C(=O)O)n(c13)CCCCOC2 (single isomer, unassigned; enantiomer 2) [Example 008, 1,3-dimethyl-7-[3-(5,6,7,8-tetrahydronaphthalen-1-yloxy)propyl]-1,10,11,12,13,15-hexahydropyrazolo[4′3′:9,10][1,6]oxazacycloundecino[8,7,6-hi]indole-8-carboxylic Acid-N-ethylethanamine Salt (Enantiomer 2)] | – | – | – | – | – | – | > 3.3e-05 | > 3.3e-05
– | – | – | – | – | 0.162 | > 33 | 1.58e-05 | > 33 | 2.02e-05 | 1.18e-05 | Cc1cc(OCCCc2c(C(=O)O)n3c4c(cccc24)-c2c(C)nn(C)c2COCCCC3)cc(C)c1Cl (single isomer, unassigned; enantiomer 2) [Example 011, 7-[3-(4-chloro-3,5-dimethylphenoxy)propyl]-1,3-dimethyl-1,10,11,12,13,15-hexahydropyrazolo[4′,3′:9,10][1,6]oxazacycloundecino[8,7,6-hi]indole-8-carboxylic Acid-N-ethylethanamine Salt (Enantiomer 2)] | – | – | – | – | – | – | > 3.3e-05 | > 3.3e-05
– | – | – | – | – | 0.0646 | > 33 | 1.37e-05 | > 33 | 1.72e-05 | 6.75e-06 | Cc1nn(C)c2c1-c1cccc3c(CCCOc4cccc5cc(F)ccc45)c(C(=O)O)n(c13)CCCCOC2 (single isomer, unassigned; enantiomer 2) [Example 020, 7-{3-[(6-fluoronaphthalen-1-yl)oxy]propyl}-1,3-dimethyl-1,10,11,12,13,15-hexahydropyrazolo[4′,3′:9,10][1,6]oxazacycloundecino[8,7,6-hi]indole-8-carboxylic Acid-N-ethylethanamine Salt (Enantiomer 2)] | – | – | – | – | – | – | 2.31e-05 | > 3.3e-05
– | – | – | – | – | 0.22 | > 33 | 2.01e-05 | > 33 | 1.82e-05 | 1.38e-05 | Cc1ccc2c(CCCOc3cccc4ccccc34)c(C(=O)O)n3c2c1-c1c(C)nn(C)c1COCCCC3 (single isomer, unassigned; enantiomer 2) [Example 029, 1,3,4-trimethyl-7-[3-(naphthalen-1-yloxy)propyl]-1,10,11,12,13,15-hexahydropyrazolo[4′,3′:9,10][1,6]oxazacycloundecino[8,7,6-hi]indole-8-carboxylic acid-N-ethylethanamine Salt (Enantiomer 2)] | – | – | – | – | – | – | > 3.3e-05 | > 3.3e-05
– | – | – | – | – | 0.0737 | > 33 | 1.53e-05 | > 33 | 8.91e-06 | 4.39e-06 | Cc1cc2c(OCCCc3c(C(=O)O)n4c5c(cccc35)-c3c(C)nn(C)c3COCCCC4)cccc2cc1F (single isomer, unassigned; enantiomer 2) [Example 051, 7-{3-[(6-fluoro-7-methylnaphthalen-1-yl)oxy]propyl}-1,3-dimethyl-1,10,11,12,13,15-hexahydropyrazolo[4′,3′:9,10][1,6]oxazacycloundecino[8,7,6-hi]indole-8-carboxylic acid-N-ethylethanamine Salt (Enantiomer 2)] | – | – | – | – | – | – | 3e-05 | 2.02e-05
